Legend:
HDL cholesterol levels = assay: Effects on plasma lipid levels in hamsters; format: in vivo; details: male hamsters, 30 mg/kg p.o. once daily for five days, blood 2 hours after final treatment, 4 hour-fasted
Method: Efficacy of compounds in modulating plasma lipid levels was determined in hamsters after 5 days of daily administration of compounds. Male hamsters of 6-8 weeks of age were used in the studies. After one week of acclimation, blood samples were collected from 4 hour-fasted animals for plasma lipid determination. Animals were then assigned to treatment groups based on HDL-cholesterol levels. Compounds were administered by gavage, once daily for five days. Control animals received vehicle alone. Blood was collected on day five from 4 hour-fasted hamsters, 2 hours after a final treatment, for plasma lipid analysis. Total cholesterol, HDL-cholesterol, LDL-cholesterol, and triglycerides were determined using colorimetric enzymatic assays (Roche Diagnostic GmbH, Mannheim, Germany). HDL-cholesterol was also determined after selective precipitation of HDL from plasma by standard procedures.

[1] = target: T1, human cannabis CB2 receptor (Homo sapiens, UniProt P34972); assay: CB2 receptor affinity, [3H]-CP-55,940 radioligand binding on HEK cell membranes; details: Ki calculated from IC50 (Cheng-Prusoff)
T1 construct: expressed in transfected cells; host or cells: human embryonic kidney (HEK) cells, Semliki Forest Virus system, membrane preparations
Method: (§1) The affinity of the compounds of the invention for cannabinoid CB2 receptors was determined using membrane preparations of human embryonic kidney (HEK) cells in which the human cannabis CB2 receptor is transiently transfected using the Semliki Forest Virus system in conjunction with [3H]-CP-55,940 as radioligand. After incubation of freshly prepared cell membrane preparation with the [3H]-ligand, with or without addition of compounds of the invention, separation of bound and free ligand was performed by filtration over glass fiber filters. Radioactivity on the filter was measured by scintillation counting.
(§2) Ki values were calculated from the IC50 using the Cheng-Prusoff equation.

[2] = target: T2, human cannabis CB1 receptor (Homo sapiens, UniProt P21554); assay: CB1 receptor affinity, [3H]-CP-55,940 radioligand binding on HEK cell membranes; details: Ki calculated from IC50 (Cheng-Prusoff)
T2 construct: expressed in transfected cells; host or cells: human embryonic kidney (HEK) cells, Semliki Forest Virus system, membrane preparations
Method: as §1, with “cannabinoid” for “cannabinoid CB2”, “CB1” for “CB2”
as §2

T2 sequence (P21554 whole entry): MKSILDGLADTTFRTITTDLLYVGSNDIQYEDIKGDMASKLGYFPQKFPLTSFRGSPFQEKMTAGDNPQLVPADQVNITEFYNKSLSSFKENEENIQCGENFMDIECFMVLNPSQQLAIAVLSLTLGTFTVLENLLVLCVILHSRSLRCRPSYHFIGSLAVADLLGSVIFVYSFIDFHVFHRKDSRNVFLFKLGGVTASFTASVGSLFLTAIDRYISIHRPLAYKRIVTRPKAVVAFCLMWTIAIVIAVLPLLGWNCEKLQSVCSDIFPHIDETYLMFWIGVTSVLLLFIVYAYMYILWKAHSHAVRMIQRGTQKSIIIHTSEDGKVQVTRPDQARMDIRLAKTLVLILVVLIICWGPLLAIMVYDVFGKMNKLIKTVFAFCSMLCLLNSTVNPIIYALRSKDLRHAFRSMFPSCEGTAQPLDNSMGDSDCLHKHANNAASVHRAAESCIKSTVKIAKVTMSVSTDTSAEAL
T1 sequence (P34972 whole entry): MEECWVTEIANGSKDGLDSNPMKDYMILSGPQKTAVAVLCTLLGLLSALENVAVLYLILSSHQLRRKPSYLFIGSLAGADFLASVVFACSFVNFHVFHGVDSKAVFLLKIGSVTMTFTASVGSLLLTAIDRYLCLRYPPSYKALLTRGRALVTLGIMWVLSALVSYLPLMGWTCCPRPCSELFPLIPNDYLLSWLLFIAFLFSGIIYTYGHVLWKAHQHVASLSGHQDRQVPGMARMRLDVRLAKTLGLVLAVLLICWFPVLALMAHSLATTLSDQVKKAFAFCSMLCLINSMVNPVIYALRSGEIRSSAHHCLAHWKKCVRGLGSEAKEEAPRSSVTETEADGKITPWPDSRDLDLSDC

Ki [1] [µM]	Ki [2] [µM]	Compound	HDL Cholesterol levels [as % compared to control] @ 30 mg/kg p.o. of compound (HDL cholesterol levels)
> 10	> 10	O=C(N[C@H]1CCCC[C@H]1O)c1cnc(OCC(F)(F)F)c(-c2ccc(Cl)c(Cl)c2)c1 [5-(3,4-Dichloro-phenyl)-N-((1S,2R)-2-hydroxy-cyclohexyl)-6-(2,2,2-trifluoro-ethoxy)-nicotinamide]	+121.9 ± 21.0%
> 10	1.3	O=C(N[C@@H]1CCCC[C@H]1O)c1cnc(OCC(F)(F)F)c(-c2ccc(Cl)c(Cl)c2)c1 [5-(3,4-dichloro-phenyl)-N-((1R,2R)-2-hydroxy-cyclohexyl)-6-(2,2,2-trifluoro-ethoxy)-nicotinamide]	+77.9 ± 11.1%
> 10	0.028	O=C(N[C@@H]1CCCC[C@H]1O)c1cnc(OCC(F)(F)F)c(-c2ccc(Cl)cc2)c1 [5-(4-Chloro-phenyl)-N-((1R,2R)-2-hydroxy-cyclohexyl)-6-(2,2,2-trifluoro-ethoxy)-nicotinamide, reference compound]	+103.8 ± 14.7%

Reference: patent US8227491B2, “5-(3,4-dichloro-phenyl)-N-(2-hydroxy-cyclohexyl)-6-(2,2,2-trifluoro-ethoxy)-nicotinamide and salts thereof” (Hoffmann-La Roche Inc., priority 2009, dated 2012)
